The structures appear in SMILES notation. In brackets after ≈: the same amount, converted by molar mass.

From ChEMBL document CHEMBL3758177, “Synthesis and biological evaluation of novel phosphoramidate derivatives of coumarin as chitin synthase inhibitors and antifungal agents” (Eur J Med Chem, 2016) come the findings set out here.

Assay [1] has as its system Escherichia coli. The assay can be described thus: Antibacterial activity against Escherichia coli JM 109 after 24 hrs by two-fold serial dilution method. The format is functional. The note with it: JM 109, 24 h.
Assay [2] relates to Staphylococcus aureus. In words: Antibacterial activity against Methicillin-resistant Staphylococcus aureus N 315 after 24 hrs by two-fold serial dilution method. The class given is functional. The note with it: N 315, 24 h.
For assay [3], the system named is Bacillus spizizenii. The assay can be described thus: Antibacterial activity against Bacillus subtilis ATCC 6633 after 24 hrs by two-fold serial dilution method. The class given is functional. Particulars: ATCC 6633, 24 h.
Assay [4] has as its system Pseudomonas aeruginosa. The assay can be described thus: Antibacterial activity against Pseudomonas aeruginosa ATCC 9027 after 24 hrs by two-fold serial dilution method. The class given is functional. Particulars: ATCC 9027, 24 h.
Assay [5] is described as follows: Inhibition of Candida tropicalis ATCC 750 chitin synthase using UDP-GlcNAc as substrate after 60 mins by microplate reader method.
For assay [6], the system named is Proteus vulgaris. The assay can be described thus: Antibacterial activity against Proteus vulgaris ATCC 8427 after 24 hrs by two-fold serial dilution method. The format is functional. Particulars: ATCC 8427, 24 h.
Assay [7] deals with Candida albicans. In words: Antifungal activity against Candida albicans CMCC 76615 after 24 hrs by two-fold serial dilution method. The note with it: CMCC 76615, 24 h. The format is functional.
Assay [8] relates to Staphylococcus aureus. The assay can be described thus: Antibacterial activity against Staphylococcus aureus ATCC 25923 after 24 hrs by two-fold serial dilution method. The class given is functional. Particulars: ATCC 25923, 24 h.
For assay [9], the system named is Aspergillus flavus. In words: Antifungal activity against Aspergillus flavus ATCC 16870 after 24 hrs by two-fold serial dilution method. The class given is functional. Particulars: ATCC 16870, 24 h.
The subject of assay [10] is Cryptococcus neoformans. The assay can be described thus: Antifungal activity against Cryptococcus neoformans ATCC 32719 after 24 hrs by two-fold serial dilution method. The note with it: ATCC 32719, 24 h. The format is functional.
The subject of assay [11] is Candida tropicalis. The assay can be described thus: Inhibition of Candida tropicalis ATCC 750 chitin synthase using UDP-GlcNAc as substrate at 300 ug/ml after 60 mins by microplate reader method.
Assay [12] relates to Aspergillus fumigatus. The assay can be described thus: Antifungal activity against Aspergillus fumigatus GIMCC 3.19 after 24 hrs by two-fold serial dilution method. Particulars: GIMCC 3.19, 24 h. The class given is functional.

On to `COC(=O)C(C)NP(=O)(OCCN(C)c1cc(=O)oc2c(C)cccc12)Oc1ccccc1` (centres undefined), for which the MIC – broadly, the lowest concentration found to suppress growth – in assay [1] came to 128 µg/mL (≈ 270 µM); in assay [2] it was 128 µg/mL (≈ 270 µM); in assay [3], 512 µg/mL (≈ 1080 µM); in [4] it was 256 µg/mL (≈ 540 µM); in assay [6], 128 µg/mL (≈ 270 µM); in [7], 64 µg/mL (≈ 135 µM). Also, the MIC was 64 µg/mL (≈ 135 µM) in [8], 64 µg/mL (≈ 135 µM) in assay [9], 128 µg/mL (≈ 270 µM) in assay [10] and 32 µg/mL (≈ 67.4 µM) in assay [12]. In [5], the IC50 (usually the concentration at which inhibition is half-maximal) worked out at 220 µM. For the same molecule, in [11], the inhibition – broadly, how much of the control response was suppressed – worked out at 64%.

With `COC(=O)C(C)NP(=O)(OCCN(C)c1cc(=O)oc2ccc(C(C)(C)C)cc12)Oc1ccccc1` (centres undefined), the MIC in [1] was determined as 16 µg/mL (≈ 31 µM); in assay [2], 1 µg/mL (≈ 1.94 µM); in assay [3] it was 16 µg/mL (≈ 31 µM); in assay [4], 16 µg/mL (≈ 31 µM); in [6], 16 µg/mL (≈ 31 µM); in [7], 64 µg/mL (≈ 124 µM). Moreover, the MIC in assay [8] was found to be 64 µg/mL (≈ 124 µM); in assay [9], 16 µg/mL (≈ 31 µM); in [10], 64 µg/mL (≈ 124 µM); in assay [12], 64 µg/mL (≈ 124 µM). The molecule further gave an IC50 in assay [5] of 170 µM. This molecule registered an inhibition in assay [11] of 62%.

Take `COC(=O)CNP(=O)(OCCN(C)c1cc(=O)oc2ccc(C(C)(C)C)cc12)Oc1ccccc1` (centres undefined): the MIC was found to be 64 µg/mL (≈ 127 µM) in assay [1]; 8 µg/mL (≈ 15.9 µM) in assay [2]; 16 µg/mL (≈ 31.8 µM) in assay [3]; 16 µg/mL (≈ 31.8 µM) in [4]; 64 µg/mL (≈ 127 µM) in assay [6]; 64 µg/mL (≈ 127 µM) in [7]. Also, the MIC in assay [8] was 64 µg/mL (≈ 127 µM); in assay [9], 64 µg/mL (≈ 127 µM); in assay [10], 32 µg/mL (≈ 63.7 µM); in assay [12], 32 µg/mL (≈ 63.7 µM). The molecule also gave an IC50 in assay [5] of 620 µM. Besides, the inhibition in assay [11] came out at 50%.

Consider `COC(=O)CNP(=O)(OCCN(C)c1cc(=O)oc2ccccc12)Oc1ccccc1` (centres undefined), for which the MIC is 128 µg/mL (≈ 287 µM) in assay [1]; 256 µg/mL (≈ 573 µM) in [2]; 512 µg/mL (≈ 1150 µM) in assay [3]; 256 µg/mL (≈ 573 µM) in assay [4]; 512 µg/mL (≈ 1150 µM) in assay [6]; 64 µg/mL (≈ 143 µM) in assay [7]. Moreover, the MIC was 256 µg/mL (≈ 573 µM) in [8], 128 µg/mL (≈ 287 µM) in assay [9], 64 µg/mL (≈ 143 µM) in assay [10] and 128 µg/mL (≈ 287 µM) in assay [12]. Also, in assay [5], half-maximal inhibition (IC50) was put at 640 µM. This molecule also displayed an inhibition in assay [11] of 49%.

As to `COC(=O)C(Cc1ccccc1)NP(=O)(OCCN(C)c1cc(=O)oc2ccc(C)cc12)Oc1ccccc1` (centres undefined), the MIC in [1] was found to be 64 µg/mL (≈ 116 µM); in assay [2], 128 µg/mL (≈ 232 µM); in [3] it was 64 µg/mL (≈ 116 µM); in assay [4] it was 256 µg/mL (≈ 465 µM); in assay [6], 16 µg/mL (≈ 29.1 µM); in [7], 64 µg/mL (≈ 116 µM). In addition, the MIC in assay [8] amounted to 64 µg/mL (≈ 116 µM); in assay [9] it was 64 µg/mL (≈ 116 µM); in [10], 64 µg/mL (≈ 116 µM); in assay [12], 128 µg/mL (≈ 232 µM). Moreover, the inhibition in [11] was determined as 43%.

As to `COC(=O)CNP(=O)(OCCN(C)c1cc(=O)oc2c(C)cccc12)Oc1ccccc1` (centres undefined), the MIC was 32 µg/mL (≈ 69.5 µM) in [1]; 256 µg/mL (≈ 556 µM) in assay [2]; 512 µg/mL (≈ 1110 µM) in [3]; 256 µg/mL (≈ 556 µM) in [4]; 256 µg/mL (≈ 556 µM) in assay [6]; 64 µg/mL (≈ 139 µM) in [7]. Besides, the MIC in [8] worked out at 128 µg/mL (≈ 278 µM); in assay [9], 64 µg/mL (≈ 139 µM); in assay [10], 64 µg/mL (≈ 139 µM); in [12], 128 µg/mL (≈ 278 µM). The molecule further came in with an IC50 in [5] of 450 µM. The molecule further yielded an inhibition in assay [11] of 55%.

For the molecule `COC(=O)C(NP(=O)(OCCN(C)c1cc(=O)oc2cc(C)ccc12)Oc1ccccc1)C(C)C` (centres undefined), the MIC in [1] worked out at 256 µg/mL (≈ 509 µM); in assay [2] it was 128 µg/mL (≈ 255 µM); in assay [3] it was 32 µg/mL (≈ 63.7 µM); in [4] it was 64 µg/mL (≈ 127 µM); in assay [6], 128 µg/mL (≈ 255 µM); in assay [7] it was 128 µg/mL (≈ 255 µM). Besides, the MIC came out at 64 µg/mL (≈ 127 µM) in assay [8], 128 µg/mL (≈ 255 µM) in [9], 128 µg/mL (≈ 255 µM) in [10] and 128 µg/mL (≈ 255 µM) in assay [12]. In assay [11], this molecule showed an inhibition of 38%.

Turning to `CN[C@@H]1[C@H](O[C@H]2[C@H](O[C@H]3[C@H](O)[C@@H](O)[C@H](N=C(N)N)[C@@H](O)[C@@H]3N=C(N)N)O[C@@H](C)[C@]2(O)C=O)O[C@@H](CO)[C@H](O)[C@H]1O` [STREPTOMYCIN], the MIC amounted to 4 µg/mL (≈ 6.88 µM) in [1]; 4 µg/mL (≈ 6.88 µM) in assay [2]; 4 µg/mL (≈ 6.88 µM) in assay [3]; 4 µg/mL (≈ 6.88 µM) in assay [4]; 1 µg/mL (≈ 1.72 µM) in assay [6]; 4 µg/mL (≈ 6.88 µM) in assay [8].

With `CC1COc2c(N3CCN(C)CC3)c(F)cc3c(=O)c(C(=O)O)cn1c23` (centres undefined) [OFLOXACIN], the MIC in assay [1] was determined as 0.25 µg/mL (≈ 0.692 µM); in assay [2], 1 µg/mL (≈ 2.77 µM); in assay [3], 0.25 µg/mL (≈ 0.692 µM); in assay [4] it was 0.25 µg/mL (≈ 0.692 µM); in assay [6] it was 0.25 µg/mL (≈ 0.692 µM); in [8] it was 1 µg/mL (≈ 2.77 µM).
